We go through 4 compounds from patent US6207701A, “Urokinase inhibitors” (Abbott Laboratories, priority 2000, dated 2001).

The target in assay [1] is T1, urokinase enzyme Abbokinase (Homo sapiens, UniProt P00749).
T1 construct: purchased Abbott Laboratories, Abbott Park, Ill
Put plainly: Determination of Urokinase Inhibition (chromogenic substrate S-2444). The assay is classed as biochemical. The settings on record: substrate S-2444 at 200 μM, pH 7.4, enzyme 2-3 nM, 405 nm, 15 minutes; read-out: Inhibitory Potency Against Urokinase, IC50. As to the method:
Distributor of Chromogenix) at 200 μM. […] Four concentrations were chosen, then 5 μl of each were diluted to a total assay volume of 200 μl. […] Several vials were reconstituted as directed on the vial, aliquoted and stored frozen. The enzyme was further diluted in assay buffer and 10 μl was used in the assay. Enzyme concentration in the assay was 2-3 nM. […] The Spectromax® calculated the reaction rates which were used to calculate percent inhibition of the compounds of this invention versus the reaction rate of the enzyme in the absence of any inhibitor. The Ki 's of the inhibitors were calculated from the percent inhibition and previously established Km.

Assay [2] concerns angiogenesis/capillary network formation. To be noted: in vitro; Alliegro and Glaser, J. Cell Biol. 115: 402a (1991); cited from earlier work.

Structures can show the parent of a compound that is named as a salt.

A word on the IC50: it is the concentration at which inhibition is half-maximal. With `CC(C)Oc1cccc(NC(=O)c2ccc3cc(C(=N)N)sc3c2)c1` [Example 4, 2-[amino(imino)methyl]-N-(3-isopropoxyphenyl)-1-benzothiophene-6-carboxamide], the IC50 in assay [1] is 680 nM. Still for that read-out and setting: the result for `N=C(N)c1cc2c(Nc3nccs3)cccc2s1` [Example 2, 4-(1,3-thiazol-2-ylamino)-1-benzothiophene-2-carboximidamide trifluoroacetic acid salt] reads 192 nM. As for `N=C(N)NC(=O)c1nc(Cl)c(N)nc1N` [Amiloride], in assay [2], the “inhibit angiogenesis/capillary network formation” value is “angiogenesis/capillary network formation in vitro”. As for `N=C(N)c1cc2ccc(C(=O)Nc3ccccc3)cc2s1` [Example 3, 2-[amino(imino)methyl]-N-phenyl-1-benzothiophene-6-carboxamide], the IC50 in assay [1] turned out to be 3220 nM.
